In general, melting point refers to the temperature of the solid-liquid transition. As to `CCn1nc(C(F)(F)F)c(C)c1O`, the melting point was in the range of 150 to 152 °C.
Under `CCCn1nc(C(F)(F)F)c(C)c1O` stands 133 to 134 °C; under `Br.CCn1nc(C(F)(F)F)c(CSC(=N)N)c1OC(F)F`, 139 to 141 °C; under `Cn1nc(C(F)(F)F)c(CSC2=NOC(C)(C)C2)c1OC(F)F`, 39 to 40 °C.
As for `Cn1nc(C(F)(F)F)c(CS(=O)(=O)C2=NOCC2)c1OC(F)F`, the melting point is 115 to 117 °C.
Under `Cn1nc(C(F)(F)F)c(CS(=O)(=O)C2=NOC3CCCCC23)c1OC(F)F` (stereo not drawn) stands 97 to 98 °C; under `CC1CC(S(=O)(=O)Cc2c(C(F)(F)F)nn(C)c2OC(F)F)=NO1` (stereo not drawn), 106 to 107 °C.
On to `CC(C)C1CC(S(=O)(=O)Cc2c(C(F)(F)F)nn(C)c2OC(F)F)=NO1` (stereo not drawn), for which the melting point fell in the range of 85 to 86 °C.
Compound `Cn1nc(C(F)(F)F)c(CS(=O)(=O)C2=NOC(C)(C)C2)c1OCC(F)(F)F` came in with a melting point of 93 to 95 °C.
Take `Cn1nc(C(F)(F)F)c(CS(=O)(=O)C2=NOC(C)(C)C2)c1OCC(F)F`: the melting point was in the range of 89 to 91 °C.
Under `CC(C)n1nc(C(F)(F)F)c(CS(=O)(=O)C2=NOC(C)(C)C2)c1OCC(F)F` stands 88 to 89 °C.
In the case of `CC(C)n1nc(C(F)(F)F)c(CS(=O)(=O)C2=NOC(C)(C)C2)c1OCC(F)(F)F` it was 109 to 110 °C.
Compound `CCCn1nc(C(F)(F)F)c(CS(=O)(=O)C2=NOC(C)(C)C2)c1OCC(F)(F)F` gave a melting point of 49 to 51 °C.
Under `CCn1nc(C(F)(F)F)c(CS(=O)(=O)C2=NOC(C)(C)C2)c1OCC(F)(F)F` stands 84 to 86 °C; under `CC1(C)CC(S(=O)(=O)Cc2c(C(F)(F)F)nn(C(C)(C)C)c2OCC(F)(F)F)=NO1`, 91 to 92 °C; under `CCn1nc(C(F)(F)F)c(CS(=O)(=O)C2=NOC(C)(C)C2)c1OC(F)F`, 98 to 100 °C.
The compound `CCC1(C)CC(S(=O)(=O)Cc2c(C(F)(F)F)nn(C)c2OC(F)F)=NO1` (stereo not drawn) had a melting point of 77 to 78 °C.
`Cn1nc(C(F)(F)F)c(CS(=O)(=O)C2=NOC(C)(C3CC3)C2)c1OC(F)F` (stereo not drawn): the melting point lay within 96 to 98 °C.

Values taken from patent publication US20070249844A1, “Pyrazole derivatives and process for the production thereof” (Ihara Chemical Industry Co., Ltd., priority 2002, published 2007).
